Source: patent US6355799B1, “Substituted benzene compounds, process for their preparation, and herbicidal and defoliant compositions containing them” (ISK Americas Incorporated, priority 1997, dated 2002)

What was measured:
Type in all cases: in vivo
[1] = system: redroot pigweed (Amaranthus retroflexus, AMARE); assay: Pre-emerge test, greenhouse herbicide activity screening; conditions: pre-emerge, 14 days after application, rating scale 0-100
Procedure, shortened: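 Herbicidal damage is scored 0 (none) to 100 (complete plant death) two weeks after a simulated field spray. Rates span 15–1000 g ai/ha, delivered in acetone at 187 l/ha. For post-emergence treatments, plants have 2–3 leaves and the spray carries 0.25% v/v non-ionic surfactant.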

[2] = system: barnyardgrass (Echinochloa crus-galli, ECHCG); assay: as above; conditions: pre-emerge, 14 days after application, rating scale 0-100
Procedure, shortened: (§1)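 Visual ratings on a 0-100 scale (0 no damage, 100 all plants dead) were taken at 14 days after treatment. Rates of 15-1000 g ai/ha in acetone, 187 l/ha, were sprayed onto soil one day after planting (pre-emerge) or onto 2-3 leaf plants with 0.25% v/v surfactant (post-emerge).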

[3] = system: common ragweed (Ambrosia artemisizfolia L., AMBEL); assay: as above; conditions: pre-emerge, 14 days after application, rating scale 0-100
Procedure, shortened: as §1

[4] = system: green foxtail (Setaria viridis, SETVI); assay: as above; conditions: pre-emerge, 14 days after application, rating scale 0-100
Procedure, shortened: as §1

[5] = system: ivyleaf morningglory (Ipomoea hederacea, IPOHE); assay: as above; conditions: pre-emerge, 14 days after application, rating scale 0-100
Procedure, shortened: as §1

[6] = system: johnsongrass (Sorghum halepense, SORHA); assay: as above; conditions: pre-emerge, 14 days after application, rating scale 0-100
Procedure, shortened: as §1

[7] = system: lambsquarters (Chenopodium album, CHEAL); assay: as above; conditions: pre-emerge, 14 days after application, rating scale 0-100
Procedure, shortened: as §1

[8] = system: large crabgrass (Digitaria sanguinalis, DIGSA); assay: as above; conditions: pre-emerge, 14 days after application, rating scale 0-100
Procedure, shortened: as §1

[9] = system: sicklepod (Cassia obtusifolia, CASOB); assay: as above; conditions: pre-emerge, 14 days after application, rating scale 0-100
Procedure, shortened: as §1

[10] = system: velvetleaf (Abutilon theophrasti, ABUTH); assay: as above; conditions: pre-emerge, 14 days after application, rating scale 0-100
Procedure, shortened: as §1

[11] = system: field corn (Zea mays L., var. Dekalb 535, CORN); assay: Pre-emerge test, crop safety; conditions: pre-emerge, 14 days after application, rating scale 0-100
Procedure, shortened: as §1

[12] = system: upland rice (Oryza sp., var. Tebonnet, RICE); assay: Pre-emerge test, crop safety; conditions: pre-emerge, 14 days after application, rating scale 0-100
Procedure, shortened: as §1

[13] = system: barnyardgrass (Echinochloa crus-galli, ECHCG); assay: Post-emerge test, greenhouse herbicide activity screening; conditions: rating scale 0-100 (0 no damage, 100 complete death), 14 days after application
Procedure, shortened: (§2)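 Rating: 0–100 visual injury, 14 DAA. Application: acetone, 187 l/ha, 15–1000 g ai/ha, flat-fan track sprayer with nozzle 40–45 cm above soil or canopy. Post-emerge runs used 0.25% v/v surfactant on 2–3 leaf plants.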

[14] = system: green foxtail (Setaria viridis, SETVI); assay: as above; conditions: rating scale 0-100 (0 no damage, 100 complete death), 14 days after application
Procedure, shortened: as §2

[15] = system: ivyleaf morningglory (Ipomoea hederacea, IPOHE); assay: as above; conditions: rating scale 0-100 (0 no damage, 100 complete death), 14 days after application
Procedure, shortened: as §2

[16] = system: johnsongrass (Sorghum halepense, SORHA); assay: as above; conditions: rating scale 0-100 (0 no damage, 100 complete death), 14 days after application
Procedure, shortened: as §2

[17] = system: lambsquarters (Chenopodium album, CHEAL); assay: as above; conditions: rating scale 0-100 (0 no damage, 100 complete death), 14 days after application
Procedure, shortened: as §2

[18] = system: large crabgrass (Digitaria sanguinalis, DIGSA); assay: as above; conditions: rating scale 0-100 (0 no damage, 100 complete death), 14 days after application
Procedure, shortened: as §2

[19] = system: redroot pigweed (Amaranthus retroflexus, AMARE); assay: as above; conditions: rating scale 0-100 (0 no damage, 100 complete death), 14 days after application
Procedure, shortened: as §2

[20] = system: sicklepod (Cassia obtusifolia, CASOB); assay: as above; conditions: rating scale 0-100 (0 no damage, 100 complete death), 14 days after application
Procedure, shortened: as §2

[21] = system: velvetleaf (Abutilon theophrasti, ABUTH); assay: as above; conditions: rating scale 0-100 (0 no damage, 100 complete death), 14 days after application
Procedure, shortened: as §2

[22] = system: field corn (Zea mays L., var. Dekalb 535, CORN); assay: Post-emerge test, crop safety; conditions: rating scale 0-100 (0 no damage, 100 complete death), 14 days after application
Procedure, shortened: as §1

[23] = system: upland rice (Oryza sp., var. Tebonnet, RICE); assay: Post-emerge test, crop safety; conditions: rating scale 0-100 (0 no damage, 100 complete death), 14 days after application
Procedure, shortened: as §1

CCOC(=O)C(Cl)Cc1c(C)c(Cl)cc(F)c1-n1c(=O)cc(C(F)(F)F)n(C)c1=O (stereo not shown) [14-54]
phytotoxicity rating AMARE ([1]; 63 g ai/ha): 20
phytotoxicity rating AMARE ([1]; 250 g ai/ha): 85
phytotoxicity rating ECHCG ([2]; 63 g ai/ha): 0
phytotoxicity rating ECHCG ([2]; 250 g ai/ha): 0
phytotoxicity rating AMBEL ([3]; 63 g ai/ha): 0
phytotoxicity rating AMBEL ([3]; 250 g ai/ha): 0
phytotoxicity rating SETVI ([4]; 63 g ai/ha): 20
phytotoxicity rating SETVI ([4]; 250 g ai/ha): 80
phytotoxicity rating IPOHE ([5]; 63 g ai/ha): 0
phytotoxicity rating IPOHE ([5]; 250 g ai/ha): 40
phytotoxicity rating SORHA ([6]; 63 g ai/ha): 0
phytotoxicity rating SORHA ([6]; 250 g ai/ha): 30
phytotoxicity rating CHEAL ([7]; 63 g ai/ha): 10
phytotoxicity rating CHEAL ([7]; 250 g ai/ha): 100
phytotoxicity rating DIGSA ([8]; 63 g ai/ha): 0
phytotoxicity rating DIGSA ([8]; 250 g ai/ha): 30
phytotoxicity rating CASOB ([9]; 63 g ai/ha): 0
phytotoxicity rating CASOB ([9]; 250 g ai/ha): 10
phytotoxicity rating ABUTH ([10]; 63 g ai/ha): 0
phytotoxicity rating ABUTH ([10]; 250 g ai/ha): 70
phytotoxicity rating CORN ([11]; 63 g ai/ha): 0
phytotoxicity rating CORN ([11]; 250 g ai/ha): 0
phytotoxicity rating RICE ([12]; 63 g ai/ha): 0
phytotoxicity rating RICE ([12]; 250 g ai/ha): 15
Post-emerge Herbicidal Activity, phytotoxicity rating ECHCG ([13]; Rate 63 g ai/ha): 30
Post-emerge Herbicidal Activity, phytotoxicity rating ECHCG ([13]; Rate 250 g ai/ha): 30
Post-emerge Herbicidal Activity, phytotoxicity rating SETVI ([14]; Rate 63 g ai/ha): 10
Post-emerge Herbicidal Activity, phytotoxicity rating SETVI ([14]; Rate 250 g ai/ha): 10
Post-emerge Herbicidal Activity, phytotoxicity rating IPOHE ([15]; Rate 63 g ai/ha): 30
Post-emerge Herbicidal Activity, phytotoxicity rating IPOHE ([15]; Rate 250 g ai/ha): 80
Post-emerge Herbicidal Activity, phytotoxicity rating SORHA ([16]; Rate 63 g ai/ha): 0
Post-emerge Herbicidal Activity, phytotoxicity rating SORHA ([16]; Rate 250 g ai/ha): 0
Post-emerge Herbicidal Activity, phytotoxicity rating CHEAL ([17]; Rate 63 g ai/ha): 20
Post-emerge Herbicidal Activity, phytotoxicity rating CHEAL ([17]; Rate 250 g ai/ha): 60
Post-emerge Herbicidal Activity, phytotoxicity rating DIGSA ([18]; Rate 63 g ai/ha): 0
Post-emerge Herbicidal Activity, phytotoxicity rating DIGSA ([18]; Rate 250 g ai/ha): 10
Post-emerge Herbicidal Activity, phytotoxicity rating AMARE ([19]; Rate 63 g ai/ha): 40
Post-emerge Herbicidal Activity, phytotoxicity rating AMARE ([19]; Rate 250 g ai/ha): 50
Post-emerge Herbicidal Activity, phytotoxicity rating CASOB ([20]; Rate 63 g ai/ha): 0
Post-emerge Herbicidal Activity, phytotoxicity rating CASOB ([20]; Rate 250 g ai/ha): 30
Post-emerge Herbicidal Activity, phytotoxicity rating ABUTH ([21]; Rate 63 g ai/ha): 60
Post-emerge Herbicidal Activity, phytotoxicity rating ABUTH ([21]; Rate 250 g ai/ha): 80
Post-emerge phytotoxicity rating CORN (crop damage) ([22]; Rate 63 g ai/ha): 5
Post-emerge phytotoxicity rating CORN (crop damage) ([22]; Rate 250 g ai/ha): 15
Post-emerge phytotoxicity rating RICE (crop damage) ([23]; Rate 63 g ai/ha): 10
Post-emerge phytotoxicity rating RICE (crop damage) ([23]; Rate 250 g ai/ha): 10
